This is an account of results in US20160303137A1, “DUAL PI3K AND WNT PATHWAY INHIBITION AS A TREATMENT FOR CANCER” (Indiana University Research and Technology Corporation, priority 2015, published 2016).

For series [1] the following is noted: known; cited from earlier work.
In series [2] the test system is TNBC patient derived xenograft (PDX) (ID: BR0901). Put plainly: TNBC PDX study, survival. In kind it is in vivo, NSG mice. The note with it: n=10 per group, once-a-day max 28 days; Buparlisib 30 mg/kg, WNT974 3 mg/kg. The method, then:
NSG mice were trochar implanted in the right hind flank with a passage 1-4, 5 mm^3 TNBC patient derived xenograft (PDX) (ID: BR0901) at The Jackson Laboratory (The Jackson Laboratory, Bar Harbor, Maine). […] 40 TNBC PDX implanted mice were used (10 mice per group: Vehicle, Buparlisib (30 mg/kg), WNT974 (3 mg/kg), and Buparlisib+WNT974). Tumors were grown to an average of 70-150 mm^3 and mice averaged 22.5 grams body weight. Mice were dosed once-a-day for a maximum of 28 days. Tumor measurements were made two times a week. Mice whose tumors reached a size of 1500 mm^3 were euthanized per IACUC protocol.

For series [3], the system named is phosphorylated-AKT (p-AKT Ser 473). As to the kind of experiment: Western blot of phospho-AKT in TNBC cell lines. Format: cell-based. The note with it: MDA-MB-231, HCC70, HCC1143; 1 μM or 10 μM; 72 hours. The method, then: (§1) For Western Blot analysis, target modulation was assessed using qPCR for Axin2 (a marker of WNT974), and western blot for Porcupine and Phospho-Akt […] (a marker of Buparlisib activity). qPCR was performed using Taqman assays (Life Technologies). For western blotting, protein was isolated using RIPA buffer and quantified with BCA assay (Thermo Fisher). Protein was run on Bis-Tris gels (Life Technologies) and transferred to PVDF. Primary pAKT-[…] antibody (Cell Signaling Technology, Beverly, Mass.), β-actin (Cell Signaling Technology), and PORCN (Abcam, Cambridge, England) were incubated overnight with subsequent 1 hour incubation with HRP-conjugate secondary antibody. Staining was performed using a chemiluminescent substrate (ThermoFisher). Imaging was performed using an LAS-4000 Luminescent Image Analyzer (Fujifilm, Tokyo, Japan). Three TNBC cell lines: MDA-MB-231, HCC70, and HCC1143 were treated with either 0, 1 μM or 10 μM Buparlisib. After 72 hours, protein was isolated and PORCN and pAKT expression was observed.

Series [4] can be described thus: In vivo single-dose PK, plasma HPLC-MS/MS. Also on record: species or system NSG mice. The note with it: for AUC(0-inf) / Cmax / Tmax / half-life / Vd/F: NOD-scid IL2Rgamma-null (NSG), mouse, po; for Vd/F: read-out: Vdss/F; for Cl/F: single dose po. The method, then:
For pharmacokinetic studies, NOD-scid IL2Rgamma-null (NSG) mice were obtained from the In Vivo Therapeutics (IVT) Core at the Indiana University School of Medicine and given a single dose of Buparlisib, WNT974, or the combination at pre-established concentrations of 30 mg/kg and 3 mg/kg respectively. This experiment employed 45 NSG mice (n=15 for each group). Plasma was drawn from 3 mice from each group at 0.5, 1, 2, 6, and 24 hours post dosage. Buparlisib and WNT974 were quantified in the plasma using high-performance liquid chromatography-mass spectrometry (HPLC-MS/MS). Pharmacokinetic (PK) parameters for Buparlisib and WNT974 including area under the curve (AUC), area under the moment curve (AUMC), and half-life (t½) were estimated using non-compartmental methods with Excel and WinNonlin v 2.0 (Certara, Princeton, N.J.). The maximum plasma concentration (Cmax) and time of Cmax (tmax) was calculated from the data. The systemic clearance (Cl/F, where F=bioavailability) of each drug was calculated from the dose and AUC0-∝The apparent volume of distribution (Vdss/F) was estimated from the Cl/F and mean residence time. The single-agent pharmacokinetic parameters were compared to the drug combination parameters to determine whether a drug-drug interaction exists.

The nature of series [5]: Quantification of drug in resected tumors (PD study). In kind it is in vivo, NSG mice. Conditions: tumors resected 1 hour and 7 hours after last dose, day 7; HPLC-MS/MS.
The test system of a further series is AXIN2 RNA. As to the kind of experiment: Axin2 RNA qPCR on TMD-231 tumors (PD study). The note with it: 7 days once-a-day; Buparlisib 30 mg/kg, WNT974 3 mg/kg. In kind it is in vivo, NSG mice. Here is the method: as §1, with “Japan).” for “Japan). Three TNBC cell lines: MDA-MB-231, HCC70, and HCC1143 were treated with either 0, 1 μM or 10 μM Buparlisib. After 72 hours, protein was isolated and PORCN and pAKT expression was observed.”
On the technique in general: Quantitative PCR measures a nucleic acid by following its amplification.

In another series the test system is TMD-231 TNBC cells. Put plainly: Pharmacodynamic study, TMD-231 xenograft tumor volume. Format: in vivo, NSG mice. The note with it: single agent, 7 days once-a-day; Buparlisib 30 mg/kg, WNT974 3 mg/kg. The method, then:
For the pharmacodynamic studies, NSG mice were implanted with TMD-231 TNBC cells into the mammary fat pad of 24 NSG mice (6 mice per group: Vehicle, Buparlisib, WNT974, Buparlisib+WNT974). The TMD-231 cell line is a variant of the MDA-MB-231 cell line that metastasizes to the lung. Tumors were allowed to grow for 29 days to an average size of approximately 350 mm^3 prior to dosing. To validate compound-mediated modulation of the PI3K/mTOR and Wnt signaling pathways, mice were dosed once-a-day with vehicle, Buparlisib (30 mg/kg), WNT974 (3 mg/kg), or the combination for 7 days, with intermittent tumor measurements.

Another series has as its system Phospho-AKT. As to the kind of experiment: pAKT western blot on TMD-231 tumors (PD study). In kind it is in vivo, NSG mice. Conditions: 7 days once-a-day; Buparlisib 30 mg/kg, WNT974 3 mg/kg. The method, then: as §1, with “Japan).” for “Japan). Three TNBC cell lines: MDA-MB-231, HCC70, and HCC1143 were treated with either 0, 1 μM or 10 μM Buparlisib. After 72 hours, protein was isolated and PORCN and pAKT expression was observed.”
(In general: Immunoblotting shows a protein as a band on a membrane.)

In the next series the test system is Porcupine (PORCN). As to the kind of experiment: Western blot of Porcupine in TNBC cell lines. In kind it is cell-based. Conditions: MDA-MB-231, HCC70, HCC1143; 1 μM or 10 μM; 72 hours. Here is the method:
as §1

[6] abbreviates: drug given alone, Buparlisib 30 mg/Kg, WNT974 3 mg/Kg.
Where [7] appears, read: measured drug given in combination with the other, Buparlisib 30 mg/Kg + WNT974 3 mg/Kg.

The structures appear in SMILES notation. Where two headings read alike, the source gives them in different places.

Take `Nc1cc(C(F)(F)F)c(-c2cc(N3CCOCC3)nc(N3CCOCC3)n2)cn1` [Buparlisib, 5-(2,6-di-4-morpholinyl-4-pyrimidinyl)-4-(trifluoromethyl)-2-pyridinamine]: the “toxicity / most common side effect in humans” value in [1] was “depression, anxiety, pneumonitis, and liver toxicity”. Also, in series [2], the “mice survived to the end of the study” value amounted to 40%. For the same molecule, in series [3], the phospho-AKT result is reported as “potent inhibition”. Moreover, in series [4] (setting [6]), the AUC(0-inf) (commonly total exposure, with the tail of the curve extrapolated) amounted to 16500 ng·h/mL; the Cmax – broadly, the peak of the concentration-time curve – was 2300 ng/mL; the Tmax (usually the time at which the peak concentration occurs) came out at 1 h; the half-life (as a rule, the time needed for the level to fall by half in the phase considered) is 3 h. Besides, in series [4] (setting [6]), the Vd/F was 0.15 L and the Cl/F was determined as 0.034 L/h. Moreover, in [4] (setting [7]), the AUC(0-inf) is 15500 ng·h/mL, the Cmax was determined as 2850 ng/mL, the Tmax was 2 h and the half-life was 2.8 h. Further, in series [4] (setting [7]), the Vd/F amounted to 0.16 L and the Cl/F is 0.035 L/h. Moreover, the “drug concentrations in tumor tissue” value in series [5] is “reaching the tumor”. Besides, the “Axin2 RNA expression in tumors” value in the series on AXIN2 RNA was “no significant change”. Besides, in the series with TMD-231 TNBC cells, the “tumor volume change (in words)” value is given as “grew slightly”. In addition, the “Inhibition of Phospho-AKT in tumors” value in the series with Phospho-AKT is listed as “observed”. Besides, in the series on Porcupine (PORCN), the Porcupine protein expression entry was “increase”.
